According to paper PMC5146859, “Phase 1/2 study of pacritinib, a next generation JAK2/FLT3 inhibitor, in myelofibrosis or other myeloid malignancies” (Journal of Hematology & Oncology, 2016):
Marks after values point to notes of the source that are not given here.

System: patients with MF
Test: Phase 2 hematologic parameters and transfusions
Type: in vivo, human
Procedure: At screening/baseline, patients underwent a medical history, physical examination, vital sign assessment, ECOG PS assessment, electrocardiogram, and assessment of hematologic parameters and blood chemistry. Hematology/blood chemistry, physical examinations, and vital sign assessments were performed throughout treatment. Toxicity was assessed using the National Cancer Institute Common Terminology Criteria for Adverse Events (NCIC-CTCAE), version 3.0, with relationship to treatment assigned by the investigator and were recorded from the first dose of pacritinib until 30 days after the last dose. Bone marrow biopsy and/or aspirate samples were drawn at baseline, on day 1 of cycle 4 and cycle 10, as clinically indicated, and at the termination visit. Disease response and progression were determined using the relevant International Working Group (IWG) criteria.

[1] = phase 2, during the study, n = 31

## C1=C/COCc2cc(ccc2OCCN2CCCC2)Nc2nccc(n2)-c2cccc(c2)COC/1 [pacritinib, 11-(2-pyrrolidin-1-yl-ethoxy)-14,19-dioxa-5,7,26-triaza-tetracyclo[19.3.1.1(2,6). 1(8,12)]heptacosa-1(25),2(26),3,5,8,10,12(27),16,21,23-decaene]
Phase 2, 16 transfused patients
  RBC transfusions, median: 11 units
Phase 2, Termination
  Hematocrit, Median % change from baseline: 0.48%
  Hemoglobin, Median % change from baseline: 5.0%
  Leukocytes, Median % change from baseline: 15.49%
  Lymphocytes, Median % change from baseline: 39.87%
  Neutrophils, Median % change from baseline: -9.19%
  Platelets, Median % change from baseline: -5.4%
  Red blood cells, Median % change from baseline: 0.18%
Phase 2, Week 2
  Hematocrit, Median % change from baseline: 2.92%
  Hemoglobin, Median % change from baseline: 5.3%
  Leukocytes, Median % change from baseline: -5.93%
  Lymphocytes, Median % change from baseline: 26.93%
  Neutrophils, Median % change from baseline: -16.44%
  Platelets, Median % change from baseline: -1.6%
  Red blood cells, Median % change from baseline: 2.23%
Phase 2, Week 4
  Hematocrit, Median % change from baseline: 0.00%
  Hemoglobin, Median % change from baseline: 2.2%
  Leukocytes, Median % change from baseline: -26.77%
  Lymphocytes, Median % change from baseline: -6.84%
  Neutrophils, Median % change from baseline: -26.43%
  Platelets, Median % change from baseline: -20.3%
  Red blood cells, Median % change from baseline: 1.41%
Phase 2, Week 6
  Hematocrit, Median % change from baseline: 0.64%
  Hemoglobin, Median % change from baseline: 9.1%
  Leukocytes, Median % change from baseline: -5.58%
  Lymphocytes, Median % change from baseline: 31.7%
  Neutrophils, Median % change from baseline: -9.32%
  Platelets, Median % change from baseline: -3.6%
  Red blood cells, Median % change from baseline: -1.65%
Phase 2, Week 8
  Hematocrit, Median % change from baseline: 2.01%
  Hemoglobin, Median % change from baseline: 4.5%
  Leukocytes, Median % change from baseline: -5.50%
  Lymphocytes, Median % change from baseline: 12.65%
  Neutrophils, Median % change from baseline: -19.76%
  Platelets, Median % change from baseline: -4.5%
  Red blood cells, Median % change from baseline: 2.14%
Phase 2, Week 10
  Hematocrit, Median % change from baseline: -3.57%
  Hemoglobin, Median % change from baseline: 8.2%
  Leukocytes, Median % change from baseline: 7.90%
  Lymphocytes, Median % change from baseline: 52.34%
  Platelets, Median % change from baseline: -3.1%
  Red blood cells, Median % change from baseline: -1.37%
Phase 2, Week 10, n = 19
  Neutrophils, Median % change from baseline: -1.44^b %
Phase 2, Week 12
  Hematocrit, Median % change from baseline: -3.31%
  Hemoglobin, Median % change from baseline: -0.5%
  Leukocytes, Median % change from baseline: -21.83%
  Lymphocytes, Median % change from baseline: 20.88%
  Neutrophils, Median % change from baseline: -31.39%
  Platelets, Median % change from baseline: -7.7%
  Red blood cells, Median % change from baseline: -1.81%
Phase 2, Week 16
  Hematocrit, Median % change from baseline: 3.11%
  Hemoglobin, Median % change from baseline: 8.6%
  Leukocytes, Median % change from baseline: -15.09%
  Lymphocytes, Median % change from baseline: 22.22%
  Neutrophils, Median % change from baseline: -33.04%
  Platelets, Median % change from baseline: -20.1%
  Red blood cells, Median % change from baseline: 6.16%
Phase 2, Week 20
  Hematocrit, Median % change from baseline: -1.30%
  Hemoglobin, Median % change from baseline: 5.8%
  Leukocytes, Median % change from baseline: -25.83%
  Lymphocytes, Median % change from baseline: 37.07%
  Neutrophils, Median % change from baseline: -32.93%
  Platelets, Median % change from baseline: -11.7%
  Red blood cells, Median % change from baseline: -0.30%
Phase 2, Week 24
  Hematocrit, Median % change from baseline: 3.01%
  Hemoglobin, Median % change from baseline: 7.3%
  Leukocytes, Median % change from baseline: -30.34%
  Lymphocytes, Median % change from baseline: 44.14%
  Neutrophils, Median % change from baseline: -43.24%
  Platelets, Median % change from baseline: -23.7%
  Red blood cells, Median % change from baseline: 2.46%
Phase 2, Week 36
  Hematocrit, Median % change from baseline: -2.91%
  Hemoglobin, Median % change from baseline: -0.4%
  Leukocytes, Median % change from baseline: -18.32%
  Lymphocytes, Median % change from baseline: 58.89%
  Neutrophils, Median % change from baseline: -33.96%
  Platelets, Median % change from baseline: -23.4%
  Red blood cells, Median % change from baseline: -3.15%
Phase 2, Week 48
  Hematocrit, Median % change from baseline: -2.39%
  Hemoglobin, Median % change from baseline: 10.1%
  Leukocytes, Median % change from baseline: -5.13%
  Lymphocytes, Median % change from baseline: 61.70%
  Neutrophils, Median % change from baseline: -28.84%
  Platelets, Median % change from baseline: -16.3%
  Red blood cells, Median % change from baseline: -3.87%
Phase 2, Week 60
  Hematocrit, Median % change from baseline: 3.70%
  Hemoglobin, Median % change from baseline: 4.7%
  Leukocytes, Median % change from baseline: -28.21%
  Lymphocytes, Median % change from baseline: 40.43%
  Neutrophils, Median % change from baseline: -40.17%
  Platelets, Median % change from baseline: -31.3%
  Red blood cells, Median % change from baseline: 1.48%
[1]
  Patients who received RBC transfusions: 51.6%
  Patients who received platelet transfusions: 9.7%
Phase 2, three transfused patients
  Platelet transfusions, median: 3 units
Phase 2, through week 60
  Median neutrophil count, span over visits: 3.83 to 6.00 × 10^9/L
  Median platelet count, span over visits: 89 to 155 × 10^9/L
Phase 2, week 24 (1/20)
  Patients with hemoglobin levels <8 g/L: 5.0%
Phase 2, week 24 (2/20)
  Patients with leukocyte counts >25 × 10^9/L: 10.0%
  Patients with platelet counts <50 × 10^9/L: 10.0%
Phase 2, week 24 (10/20)
  Patients with hemoglobin levels <10 g/L: 50.0%
  Patients with platelet counts <100 × 10^9/L: 50.0%
